From patent US4950686A, “Anti-mycoplasma agent” (Shionogi & Co., Ltd., priority 1986, dated 1990)

Columns and labels:
[1] = test system: Mycoplasma gallisepticum T-7-T (wild strain, tylosin-resistant); experiment: Anti-mycoplasma activity in vitro (MIC, broth dilution), strain T-7-T; type: cell-based; details: Mg T-7-T, 37° C., 7 days
In short: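 Broth dilution MIC in chick PPLO broth with 20% equine serum, using 2-fold agent dilutions. Inoculum of 24-48 h culture diluted to 10^6 CCU/ml before use. Incubated 7 days at 37° C.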

[2] = test system: Mycoplasma gallisepticum T-7-T (wild strain, tylosin-resistant); experiment: Mycoplasma gallisepticum air-sac infection method in chicken, strain T-7-T; type: in vivo, Mycoplasma gallisepticum; SPF chicken (white leghorn);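 for Index of Isolation: index = (P×1 + Q×2 + R×3)/S with range 0 to 6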
In short: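 9-day-old SPF white leghorn chickens, fasted one day, received tylosin-resistant M. gallisepticum T-7-T culture (usually diluted 100×) into the right air sac. Compound was given as a single forced oral dose by cannula immediately after infection, in mg/ml. At day 5, air-sac lesions (0–3) were scored as a weighted index and organisms were re-isolated from the air sacs and trachea.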

[3] = test system: Mycoplasma gallisepticum S6 (standard strain); experiment: Mycoplasma gallisepticum air-sac infection method in chicken, strain S6; type: in vivo, Mycoplasma gallisepticum; SPF chicken (white leghorn)
In short: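 Right air sac of 9-day-old SPF white leghorn chickens (water/feed withheld 1 day) inoculated with 24-48 h culture diluted ~100×; compound given once orally by cannula right after infection. At day 5, air-sac lesions scored 0-3 (index = right + 2×left), and organisms isolated from both air sacs and trachea.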

[4] = test system: Mycoplasma gallisepticum S6 (standard strain); experiment: Anti-mycoplasma activity in vitro (MIC, broth dilution), strain S6; type: cell-based; details: Mg S6, 37° C., 7 days
In short: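 Chick PPLO broth with 20% equine serum; 2-fold serial agent dilutions inoculated with culture diluted to 10^6 CCU/ml (inoculum concentration before addition). Incubated 7 days at 37 °C; MIC by broth dilution.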

[5] = 100 mg/kg × once oral, 10 mg/ml sol. b, inoculum 10^2
[6] = 200 mg/kg × once oral, 20 mg/ml sol. a, inoculum 1.9 × 10^5
[7] = 200 mg/kg × once oral, 20 mg/ml sol. c, inoculum 1.9 × 10^5
[8] = 50 mg/kg × once oral, 5 mg/ml sol. b, inoculum 6.3 × 10^4
[9] = 100 mg/kg × once oral, 10 mg/ml sol. b, inoculum 1.2 × 10^6
[10] = 100 mg/kg × once oral, 10 mg/ml sol. b, inoculum 6.3 × 10^4
[11] = 200 mg/kg × once oral, 20 mg/ml sol. a, inoculum 3.1 × 10^5
[12] = 200 mg/kg × once oral, 20 mg/ml sol. c, inoculum 3.1 × 10^5

O=c1cccccc1O [Tropolone, tropolone]
5: Change of air-sac, left: - (chickens) [2, 6] | Change of air-sac, right: - (chickens) [2, 6] | Change of air-sac, left: - (chickens) [2, 7] | Change of air-sac, right: - (chickens) [2, 7] | Isolation, T (trachea) [2, 7] | Mycoplasma Isolated Chickens [2, 7] | Change of air-sac, left: - (chickens) [3, 8] | Change of air-sac, left: - (chickens) [3, 10] | Change of air-sac, left: - (chickens) [3, 11] | Change of air-sac, right: - (chickens) [3, 11] | Change of air-sac, left: - (chickens) [3, 12] | Change of air-sac, right: - (chickens) [3, 12]
0: Change of air-sac, left: + (chickens) [2, 5] | Change of air-sac, left: ++ (chickens) [2, 5] | Change of air-sac, left: +++ (chickens) [2, 5] | Change of air-sac, right: + (chickens) [2, 5] | Change of air-sac, right: ++ (chickens) [2, 5] | Change of air-sac, right: +++ (chickens) [2, 5] | Isolation, R (right air-sac) [2, 5] | Index of Disease ([2]; 100 mg/kg × once oral, 10 mg/ml sol. b, inoculum 10^2, range 0-9.0) | Change of air-sac, left: + (chickens) [2, 6] | Change of air-sac, left: ++ (chickens) [2, 6] | Change of air-sac, left: +++ (chickens) [2, 6] | Change of air-sac, right: + (chickens) [2, 6] | Change of air-sac, right: ++ (chickens) [2, 6] | Change of air-sac, right: +++ (chickens) [2, 6] | Index of Disease ([2]; 200 mg/kg × once oral, 20 mg/ml sol. a, inoculum 1.9 × 10^5, range 0-9.0) | Change of air-sac, left: + (chickens) [2, 7] | Change of air-sac, left: ++ (chickens) [2, 7] | Change of air-sac, left: +++ (chickens) [2, 7] | Change of air-sac, right: + (chickens) [2, 7] | Change of air-sac, right: ++ (chickens) [2, 7] | Change of air-sac, right: +++ (chickens) [2, 7] | Index of Disease ([2]; 200 mg/kg × once oral, 20 mg/ml sol. c, inoculum 1.9 × 10^5, range 0-9.0) | Change of air-sac, left: + (chickens) [3, 8] | Change of air-sac, left: ++ (chickens) [3, 8] | Change of air-sac, left: +++ (chickens) [3, 8] | Change of air-sac, right: ++ (chickens) [3, 8] | Change of air-sac, right: +++ (chickens) [3, 8] | Isolation, L (left air-sac) [3, 8] | Change of air-sac, left: + (chickens) [3, 9] | Change of air-sac, left: ++ (chickens) [3, 9] | Change of air-sac, left: +++ (chickens) [3, 9] | Change of air-sac, right: + (chickens) [3, 9] | Change of air-sac, right: ++ (chickens) [3, 9] | Change of air-sac, right: +++ (chickens) [3, 9] | Isolation, L (left air-sac) [3, 9] | Isolation, R (right air-sac) [3, 9] | Isolation, T (trachea) [3, 9] | Mycoplasma Isolated Chickens [3, 9] | Index of Isolation ([3]; 100 mg/kg × once oral, 10 mg/ml sol. b, inoculum 1.2 × 10^6, range 0-6.0) | Index of Disease ([3]; 100 mg/kg × once oral, 10 mg/ml sol. b, inoculum 1.2 × 10^6, range 0-9.0) | Change of air-sac, left: + (chickens) [3, 10] | Change of air-sac, left: ++ (chickens) [3, 10] | Change of air-sac, left: +++ (chickens) [3, 10] | Change of air-sac, right: ++ (chickens) [3, 10] | Change of air-sac, right: +++ (chickens) [3, 10] | Isolation, L (left air-sac) [3, 10] | Isolation, R (right air-sac) [3, 10] | Mycoplasma Isolated Chickens [3, 10] | Index of Isolation ([3]; 100 mg/kg × once oral, 10 mg/ml sol. b, inoculum 6.3 × 10^4, trachea ND, range 0-6.0) | Change of air-sac, left: + (chickens) [3, 11] | Change of air-sac, left: ++ (chickens) [3, 11] | Change of air-sac, left: +++ (chickens) [3, 11] | Change of air-sac, right: + (chickens) [3, 11] | Change of air-sac, right: ++ (chickens) [3, 11] | Change of air-sac, right: +++ (chickens) [3, 11] | Isolation, L (left air-sac) [3, 11] | Isolation, T (trachea) [3, 11] | Index of Disease ([3]; 200 mg/kg × once oral, 20 mg/ml sol. a, inoculum 3.1 × 10^5, range 0-9.0) | Change of air-sac, left: + (chickens) [3, 12] | Change of air-sac, left: ++ (chickens) [3, 12] | Change of air-sac, left: +++ (chickens) [3, 12] | Change of air-sac, right: + (chickens) [3, 12] | Change of air-sac, right: ++ (chickens) [3, 12] | Change of air-sac, right: +++ (chickens) [3, 12] | Isolation, L (left air-sac) [3, 12] | Isolation, R (right air-sac) [3, 12] | Isolation, T (trachea) [3, 12] | Mycoplasma Isolated Chickens [3, 12] | Index of Isolation ([3]; 200 mg/kg × once oral, 20 mg/ml sol. c, inoculum 3.1 × 10^5, range 0-6.0) | Index of Disease ([3]; 200 mg/kg × once oral, 20 mg/ml sol. c, inoculum 3.1 × 10^5, range 0-9.0)
3: Isolation, T (trachea) [2, 6] | Mycoplasma Isolated Chickens [2, 6] | Change of air-sac, right: - (chickens) [3, 8]
1: Isolation, L (left air-sac) [2, 5] | Isolation, T (trachea) [2, 5] | Change of air-sac, right: + (chickens) [3, 10] | Isolation, R (right air-sac) [3, 11] | Mycoplasma Isolated Chickens [3, 11]
2.8: Index of Isolation ([2]; 200 mg/kg × once oral, 20 mg/ml sol. a, inoculum 1.9 × 10^5, range 0-6.0)
0.40: Index of Isolation ([2]; 100 mg/kg × once oral, 10 mg/ml sol. b, inoculum 10^2, range 0-6.0)
5.2: Index of Isolation ([2]; 200 mg/kg × once oral, 20 mg/ml sol. c, inoculum 1.9 × 10^5, range 0-6.0)
2: Mycoplasma Isolated Chickens [2, 5] | Isolation, L (left air-sac) [2, 6] | Isolation, R (right air-sac) [2, 6] | Change of air-sac, right: + (chickens) [3, 8] | Isolation, R (right air-sac) [3, 8] | Mycoplasma Isolated Chickens [3, 8]
0.39 µg/mL: MIC [1]
4: Isolation, L (left air-sac) [2, 7] | Isolation, R (right air-sac) [2, 7] | Change of air-sac, right: - (chickens) [3, 10]
0.4: Index of Disease ([3]; 50 mg/kg × once oral, 5 mg/ml sol. b, inoculum 6.3 × 10^4, range 0-9.0) | Index of Isolation ([3]; 50 mg/kg × once oral, 5 mg/ml sol. b, inoculum 6.3 × 10^4, trachea ND, range 0-6.0)
8: Change of air-sac, left: - (chickens) [2, 5] | Change of air-sac, right: - (chickens) [2, 5] | Change of air-sac, left: - (chickens) [3, 9] | Change of air-sac, right: - (chickens) [3, 9]
0.2 µg/mL: MIC [4]
0.2: Index of Disease ([3]; 100 mg/kg × once oral, 10 mg/ml sol. b, inoculum 6.3 × 10^4, range 0-9.0) | Index of Isolation ([3]; 200 mg/kg × once oral, 20 mg/ml sol. a, inoculum 3.1 × 10^5, range 0-6.0)
